From US11566007B2, “Ras inhibitors” (Revolution Medicines, Inc., priority 2019, dated 2023)
Like-named read-outs stand apart in the source and are kept apart here.

Tests used:
[1] = biological target: KRAS Q61H (Homo sapiens (Human), UniProt P01116+P62937, Q61H); test: Ras-Raf (BRAF RBD) disruption / FRET / MOA assay, KRAS Q61H; type: biochemical; conditions: Ras-Raf disruption/FRET/MOA assay; class symbols; read-out: KRAS Q61H FRET data IC50
Method in brief: (§1)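 TR-FRET disruption of nucleotide-loaded Ras binding to BRAF RBD via compound-driven ternary complex with cyclophilin A. Compound as 10-point 3-fold series from 30 μM final, 3 h at 25° C, then anti-His Eu-W1024 (10 nM) and anti-GST allophycocyanin (50 nM) for 1.5 h. IC50 from decreased FRET ratio versus DMSO.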

[2] = tested on: NCI-H358 cells (K-Ras G12C); test: Potency assay: pERK in NCI-H358 cells; type: cell-based, human; conditions: Homo sapiens, NCI-H358; H358 KRAS G12C; read-out: pERK EC50
Method in brief: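 pERK decrease read by AlphaLISA SureFire p-ERK1/2 or In-Cell Western after 4 h compound exposure at 37 °C, 5% CO2.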

[3] = biological target: NRAS Q61K (Homo sapiens (Human), UniProt P01111+P62937, Q61K); test: Ras-Raf (BRAF RBD) disruption / FRET / MOA assay, NRAS Q61K; type: biochemical; conditions: NRAS Q61K; Ras-Raf disruption/FRET/MOA assay; read-out: IC50* NRAS Q61K FRET data
Sequence of NRAS Q61K (P01111 whole entry Q61K): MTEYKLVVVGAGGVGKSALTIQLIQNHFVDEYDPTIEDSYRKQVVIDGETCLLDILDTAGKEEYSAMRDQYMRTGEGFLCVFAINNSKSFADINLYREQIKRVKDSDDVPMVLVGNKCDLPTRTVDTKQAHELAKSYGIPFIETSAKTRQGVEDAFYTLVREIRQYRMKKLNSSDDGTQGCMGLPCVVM
Sequence of NRAS Q61K (P62937 whole entry): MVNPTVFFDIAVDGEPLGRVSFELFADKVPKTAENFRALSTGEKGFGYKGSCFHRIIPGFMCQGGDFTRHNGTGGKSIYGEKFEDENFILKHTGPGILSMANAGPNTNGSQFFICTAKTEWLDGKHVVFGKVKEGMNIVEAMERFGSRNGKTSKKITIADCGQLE
Method in brief: as §1

[4] = tested on: NCI-H358 (K-Ras G12C); test: CellTiter-Glo cell viability assay, NCI-H358; type: cell-based, human; conditions: NCI-H358, 5-day treatment, class symbols, read-out: Additional H358 Cell Viability assay data (K-Ras G12C, IC50)
Method in brief: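 Cells seeded, compound added directly, 5-day exposure. Plates to RT ~30 min, CellTiter-Glo luminescence read. Normalized to DMSO avg (x100); 4-parameter logistic fit.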

Sequence of KRAS Q61H (P01116-2 other isoform, or with tags, fused parts or gaps Q61H): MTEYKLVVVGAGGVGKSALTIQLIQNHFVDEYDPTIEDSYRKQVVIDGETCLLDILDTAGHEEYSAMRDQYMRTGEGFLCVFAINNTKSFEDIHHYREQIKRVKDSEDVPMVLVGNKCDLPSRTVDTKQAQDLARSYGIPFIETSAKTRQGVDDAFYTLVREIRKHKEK
Sequence of KRAS Q61H (P62937 whole entry): as the sequence (P62937 whole entry) above

IC50 [4] [nM]	Compound	IC50 [1] [nM]	EC50 [2] [nM]	IC50 [3] [nM]	IC50 ([4]; Homo sapiens, NCI-H358, 120 h) [nM]
< 10	C=CC(=O)N1CC[C@H](C(=O)N(C)[C@H](C(=O)N[C@H]2Cc3cc(O)cc(c3)-c3ccc4c(c3)c(c(-c3cc(C)ccc3[C@H](C)OC)n4CC)CC(C)(C)COC(=O)[C@@H]3CCCN(N3)C2=O)C(C)C)C1 (atropisomer, axis not shown) [Example A167]	10 to 100	< 5000	100 to 1000	10 to 100
–	CC#CC(=O)N1CCC(C(=O)N(C)[C@H](C(=O)N[C@H]2Cc3nc(cs3)-c3ccc4c(c3)c(c(-c3cccnc3[C@H](C)OC)n4CC)CC(C)(C)COC(=O)[C@@H]3CCCN(N3)C2=O)C(C)C)C1 (atropisomer, axis not shown) [Example A168]	1000 to 10000	< 5000	1000 to 10000	10 to 100
–	C=CC(=O)N1CC[C@H](C(=O)N(C)[C@H](C(=O)N[C@H]2Cc3cccc(c3)-c3ccc4c(c3)c(c(-c3cccnc3[C@H](C)OC)n4CC(F)F)CC(C)(C)COC(=O)[C@@H]3CCCN(N3)C2=O)C(C)C)C1 (atropisomer, axis not shown) [Example A335]	1000 to 10000	< 5000	1000 to 10000	10 to 100
–	C=CC(=O)N1CC[C@H](C(=O)N(C)[C@H](C(=O)N[C@H]2Cc3cc(cc(C(F)F)c3)-c3ccc4c(c3)c(c(-c3cccnc3[C@H](C)OC)n4CC)CC(C)(C)COC(=O)[C@@H]3CCCN(N3)C2=O)C(C)C)C1 (atropisomer, axis not shown) [Example A341, (3S)-1-acryloyl-N-((2S)-1-(((6^3S,4S)-2^5-(difluoromethyl)-1^1-ethyl-1^2-(2-((S)-1-methoxyethyl)pyridin-3-yl)-10,10-dimethyl-5,7-dioxo-6^1,6^2,6^3,6^4,6^5,6^6-hexahydro-1^1H-8-oxa-1(5,3)-indola-6(1,3)-pyridazina-2(1,3)-benzenacycloundecaphane-4-yl)amino)-3-methyl-1-oxobutan-2-yl)-N-methylpyrrolidine-3-carboxamide]	100 to 1000	< 5000	1000 to 10000	10 to 100
–	C=CC(=O)N1CC(OC[C@H](C(=O)N[C@H]2Cc3cccc(c3)-c3ccc4c(c3)c(c(-c3cccnc3[C@H](C)OC)n4CC(F)(F)F)CC(C)(C)COC(=O)[C@@H]3CCCN(N3)C2=O)C(C)C)C1 (atropisomer, axis not shown) [Example A344]	100 to 1000	< 5000	1000 to 10000	< 10
–	C=CC(=O)N1CC(OC[C@H](C(=O)N[C@H]2Cc3cc(cc(C(F)F)c3)-c3ccc4c(c3)c(c(-c3cccnc3[C@H](C)OC)n4CC)CC(C)(C)COC(=O)[C@@H]3CCCN(N3)C2=O)C(C)C)C1 (atropisomer, axis not shown) [Example A345]	1000 to 10000	< 5000	> 10000	100 to 1000
–	C=CC(=O)N1CC2(COCCN2C(=O)N(C)[C@H](C(=O)N[C@H]2Cc3nc(cs3)-c3ccc4c(c3)c(c(-c3cccnc3[C@H](C)OC)n4CC)CC(C)(C)COC(=O)[C@@H]3CCCN(N3)C2=O)C(C)C)C1 (atropisomer, axis not shown) [Example A352]	1000 to 10000	< 5000	1000 to 10000	< 10
–	C=CC(=O)N1CC[C@@]2(C1)CN(C(=O)N(C)[C@H](C(=O)N[C@H]1Cc3nc(cs3)-c3ccc4c(c3)c(c(-c3cccnc3[C@H](C)OC)n4CC)CC(C)(C)COC(=O)[C@@H]3CCCN(N3)C1=O)C(C)C)CCO2 (atropisomer, axis not shown) [Example A353]	10 to 100	< 5000	10 to 100	10 to 100
–	C=CC(=O)NC[C@H]1CCN1C(=O)N(C)[C@H](C(=O)N[C@H]1Cc2nc(cs2)-c2ccc3c(c2)c(c(-c2cccnc2[C@H](C)OC)n3CC)CC(C)(C)COC(=O)[C@@H]2CCCN(N2)C1=O)C(C)C (atropisomer, axis not shown) [Example A356]	100 to 1000	< 5000	100 to 1000	< 10
–	C=C(C)C(=O)N1CC(N(C)C(=O)N(C)[C@H](C(=O)N[C@H]2Cc3nc(cs3)-c3ccc4c(c3)c(c(-c3cccnc3[C@H](C)OC)n4CC)CC(C)(C)COC(=O)[C@@H]3CCCN(N3)C2=O)C(C)C)C1 (atropisomer, axis not shown) [Example A360]	100 to 1000	< 5000	100 to 1000	10 to 100
–	CCn1c(-c2cccnc2[C@H](C)OC)c2c3cc(ccc31)-c1csc(n1)C[C@H](NC(=O)[C@H](C(C)C)N(C)C(=O)N(C)C1CN(C(=O)/C=C/CN(C)C)C1)C(=O)N1CCC[C@H](N1)C(=O)OCC(C)(C)C2 (atropisomer, axis not shown) [Example A361]	100 to 1000	< 5000	100 to 1000	10 to 100
–	CCn1c(-c2cccnc2[C@H](C)OC)c2c3cc(ccc31)-c1csc(n1)C[C@H](NC(=O)CN1CC[C@@]3(CCN(C(=O)C#CC(C)(C)N4CCC4)C3)C1)C(=O)N1CCC[C@H](N1)C(=O)OCC(C)(C)C2 (atropisomer, axis not shown) [Example A364]	1000 to 10000	< 5000	1000 to 10000	100 to 1000
–	CCn1c(-c2cccnc2[C@H](C)OC)c2c3cc(ccc31)-c1csc(n1)C[C@H](NC(=O)CCO[C@@H]1CCN(C(=O)C#CC(C)(C)N3CCC3)C1)C(=O)N1CCC[C@H](N1)C(=O)OCC(C)(C)C2 (atropisomer, axis not shown) [Example A366]	100 to 1000	< 5000	1000 to 10000	100 to 1000
–	C=CC(=O)N1CC[C@H](C(=O)N(C)[C@H](C(=O)N[C@H]2Cc3cc(cc(C(F)F)c3)-c3ccc4c(c3)c(c(-c3cccnc3[C@H](C)OC)n4CC(F)(F)F)CC(C)(C)COC(=O)[C@@H]3CCCN(N3)C2=O)C(C)C)C1 (atropisomer, axis not shown) [Example A372]	100 to 1000	< 5000	1000 to 10000	10 to 100
–	CCn1c(-c2cccnc2[C@H](C)OC)c2c3cc(ccc31)N1CCO[C@@H](C[C@H](NC(=O)[C@@H](COC3CN(C(=O)C#CC(C)(C)N(C)C)C3)C(C)C)C(=O)N3CCC[C@H](N3)C(=O)OCC(C)(C)C2)C1 (atropisomer, axis not shown) [Example A377, (2R)-2-(((1-(4-(dimethylamino)-4-methylpent-2-ynoyl)azetidin-3-yl)oxy)methyl)-N-((2^2S,6^3S,4S)-1^1-ethyl-1^2-(2-((S)-1-methoxyethyl)pyridin-3-yl)-10,10-dimethyl-5,7-dioxo-6^1,6^2,6^3,6^4,6^5,6^6-hexahydro-1^1H-8-oxa-2(4,2)-morpholina-1(5,3)-indola-6(1,3)-pyridazinacycloundecaphane-4-yl)-3-methylbutanamide]	> 10000	< 5000	> 10000	< 10
–	CO[C@@H](C)c1ncccc1-c1c2c3cc(ccc3n1CC(F)(F)F)-c1csc(n1)C[C@H](NC(=O)CCOC1CN(C(=O)C#CC(C)(C)N(C)C)C1)C(=O)N1CCC[C@H](N1)C(=O)OCC(C)(C)C2 (atropisomer, axis not shown) [Example A380]	1000 to 10000	< 5000	1000 to 10000	< 10
–	C=CC(=O)N1C[C@H](C)N(C(=O)N(C)[C@H](C(=O)N[C@H]2Cc3nc(cs3)-c3ccc4c(c3)c(c(-c3cccnc3[C@H](C)OC)n4CC)CC(C)(C)COC(=O)[C@@H]3CCCN(N3)C2=O)C(C)C)[C@@H](C)C1 (atropisomer, axis not shown) [Example A386]	10 to 100	< 5000	10 to 100	10 to 100
–	C=CC(=O)N1C[C@@H](C)N(C(=O)N(C)[C@H](C(=O)N[C@H]2Cc3nc(cs3)-c3ccc4c(c3)c(c(-c3cccnc3[C@H](C)OC)n4CC)CC(C)(C)COC(=O)[C@@H]3CCCN(N3)C2=O)C(C)C)[C@@H](C)C1 (atropisomer, axis not shown) [Example A387]	10 to 100	< 5000	10 to 100	10 to 100
–	C=CC(=O)N1CC2(CCN(C(=O)N(C)[C@H](C(=O)N[C@H]3Cc4nc(cs4)-c4ccc5c(c4)c(c(-c4cccnc4[C@H](C)OC)n5CC)CC(C)(C)COC(=O)[C@@H]4CCCN(N4)C3=O)C(C)C)CC2)C1 (atropisomer, axis not shown) [Example A394]	10 to 100	< 5000	10 to 100	< 10
–	C=CC(=O)N1CCN(C(=O)N(C)[C@H](C(=O)N[C@H]2Cc3nc(cs3)-c3ccc4c(c3)c(c(-c3cccnc3[C@H](C)OC)n4CC)CC(C)(C)COC(=O)[C@@H]3CCCN(N3)C2=O)C(C)C)CC12CC2 (atropisomer, axis not shown) [Example A417]	10 to 100	< 5000	10 to 100	10 to 100
